Experimental data reported in publication PMC4613240, “A Series of New Ligustrazine-Triterpenes Derivatives as Anti-Tumor Agents: Design, Synthesis, and Biological Evaluation” (International Journal of Molecular Sciences, 2015).

What was measured:
[1] = system: Madin-Darby canine kidney cell line (MDCK); test: MTT cytotoxicity (nephrotoxicity/selectivity) assay, MDCK; format: cell-based; conditions: maximal tested concentration 20.0 μM, toxicity to MDCK kidney cells
[2] = system: Hela (human cervical cancer); test: MTT cytotoxicity assay, Hela; format: cell-based; conditions: 72 h, maximal tested concentration 20.0 μM
Procedure: (§1) The cytotoxicity of ligustrazine-triterpenes derivatives was evaluated on five tumor cell lines (Bel-7402, HepG2, HT-29, Hela, and MCF-7) using the standard MTT assay. In the study, the antineoplastic drug cisplatin (DDP) was selected as the positive control. The MDCK cell line was used to test the toxicity of the ligustrazine-triterpenes derivatives and DDP.
(§2) The cell lines Bel-7402 (human hepatocellular carcinoma), HepG2 (human hepatocellular carcinoma), HT-29 (human colon carcinoma), Hela (human cervical cancer), MCF-7 (human breast cancer) were included in this study. All these cell lines were provided by the Chinese Academy of Medical Sciences & Peking Union Medical College. Cultures were maintained as monolayers in RPMI 1640 supplemented with 10% (v/v) heat inactivated fetal bovine serum and 1% (v/v) enicillin/streptomycin (Thermo Technologies, New York, NY, USA) at 37 °C in a humidified atmosphere with 5% CO2. The ligustrazine derivatives under study were dissolved in DMSO (Sigma, St. Louis, MO, USA) and added at required concentrations to the cell culture. Cells incubated without the preparations served as the control.
(§3) The cytotoxicity of the compounds was evaluated on five cancer cell lines (Bel-7402, HepG2, HT-29, Hela, MCF-7) by the standard MTT assay. In short, exponentially growing cells were seeded into 96-well plates at a density 10^4 cells/mL. The plates were incubated at 37 °C in a humidified 5% CO2 atmosphere. Cells were allowed to adhere to the surface for 24 h and then treated with serial dilutions of the compounds for 72 h. Later, aliquots of [3-(4,5-dimethylthiazol-2-yl)-2,5-diphenyltetrazolium bromide] (MTT) solution (20 μL, 5 mg/mL) were added to each well and the incubation was continued for an additional 4 h. Then the supernatant medium was thrown away. The dark blue formazan crystals formed within the healthy cells were solubilized with DMSO (150 μL) and the absorbance was measured in a plate reader (BIORAD 550 spectrophotometer, Bio-rad Life Science Development Ltd., Beijing, China) at 490 nm. Wells containing no drugs were used as control group. The IC50 values were defined as the concentration of compounds that produced a 50% reduction of surviving cells and calculated using Logit-method. Tumor cell growth inhibitory rate was calculated in the following Equation (1): % inhibition = (1 − Sample group OD/Control group OD) × 100% (1)

[3] = system: MCF-7 (human breast cancer); test: MTT cytotoxicity assay, MCF-7; format: cell-based; conditions: maximal tested concentration 20.0 μM
Procedure: as §1, §2, §3

[4] = system: Bel-7402 (human hepatocellular carcinoma); test: MTT cytotoxicity assay, Bel-7402; format: cell-based; conditions: maximal tested concentration 20.0 μM
Procedure: as §1, §2, §3

[5] = system: HepG2 (human hepatocellular carcinoma); test: MTT cytotoxicity assay, HepG2; format: cell-based; conditions: 72 h, maximal tested concentration 20.0 μM
Procedure: as §1, §2, §3

[6] = system: HT-29 (human colon carcinoma); test: MTT cytotoxicity assay, HT-29; format: cell-based; conditions: maximal tested concentration 20.0 μM
Procedure: as §1, §2, §3

Compound | IC50 [1] [µM] | IC50 [2] [µM] | IC50 ([3]; 72 h) [µM] | IC50 ([4]; 72 h) [µM] | IC50 [5] [µM] | IC50 ([6]; 72 h) [µM] | IC50 ([1]; Canis lupus familiaris) [µM] | IC50 ([2]; Homo sapiens, HeLa) [µM] | IC50 ([3]; Homo sapiens, MCF7, 72 h) [µM] | IC50 ([4]; Homo sapiens, Bel-7402, 72 h) [µM] | IC50 ([5]; Homo sapiens, HepG2, 72 h) [µM] | IC50 ([6]; Homo sapiens, HT-29, 72 h) [µM] | melting point [°C]
N.N.[Cl][Pt][Cl] [DDP, cisplatin, reference compound] | 14.6 | 6.22 | 5.17 | 5.91 | 4.57 | 5.28 |  |  |  |  |  |  | 
Cc1nc(C)c(COC(=O)[C@@]2(C)CC[C@]3(C)CC[C@]4(C)C(=CC(=O)C5[C@@]6(C)CC[C@H](O)C(C)(C)C6CC[C@]54C)C3C2)nc1C (stereo partly shown) [Compound 3a, 3-Hydroxy-11-oxoolean-12-en-30-oic acid-3,5,6-trimethylpyrazin-2-methyl ester] |  |  |  |  |  |  | > 20 | 11.2 | > 20 | > 20 | > 20 | 19.9 | 
Cc1nc(C)c(COC(=O)[C@]23CC[C@@H](C)[C@H](C)C2C2=CCC4[C@@]5(C)CC[C@H](O)C(C)(C)C5CC[C@@]4(C)[C@]2(C)CC3)nc1C (stereo partly drawn) [Compound 2a, 3β-Hydroxyurs-12-en-28-oic acid-3,5,6-trimethylpyrazin-2-methyl ester] |  |  |  |  |  |  | > 20 | 20 | > 20 | 8.01 | > 20 | 17.6 | 125.9 to 126.7
C[C@H]1[C@H](C)CC[C@]2(C(=O)O)CC[C@]3(C)C(=CC[C@@H]4[C@@]5(C)CC[C@H](O)C(C)(C)[C@@H]5CC[C@]43C)[C@H]12 [UA, ursolic acid, reference compound] |  |  |  |  |  |  |  | > 20 | > 20 | > 20 | > 20 | > 20 | 
CC1(C)CC[C@]2(C(=O)O)CC[C@]3(C)C(=CC[C@@H]4[C@@]5(C)CC[C@H](O)C(C)(C)[C@@H]5CC[C@]43C)[C@@H]2C1 [OA, oleanolic acid, reference compound] |  |  |  |  |  |  |  | > 20 | > 20 | > 20 | > 20 | > 20 | 
Cc1nc(C)c(C(=O)OC2CCC3(C)C(CCC4(C)C3CC=C3C5CC(C)(C)CCC5(C(=O)O)CCC34C)C2(C)C)nc1C (stereo not drawn) [Compound 1d, 3β-Hydroxyolea-(3,5,6-trimethylpyrazin-2-carbonyl)-12-en-28-oic acid] |  |  |  |  |  |  | 16.4 | 4.37 | 5.69 | 9.28 | 7.94 | 8.43 | 289.7 to 290.5
Cc1nc(C)c(COC(=O)[C@]23CC[C@@H](C)[C@H](C)C2C2=CCC4[C@@]5(C)CC[C@H](OC(=O)c6nc(C)c(C)nc6C)C(C)(C)C5CC[C@@]4(C)[C@]2(C)CC3)nc1C (stereo partly drawn) [Compound 2b, 3β-Hydroxyurs-(3,5,6-trimethylpyrazin-2-carbonyl)-12-en-28-oic acid-3,5,6-trimethylpyrazin-2-methyl ester] |  |  |  |  |  |  |  | > 20 | > 20 | > 20 | > 20 | > 20 | 168.2 to 168.9
Cc1nc(C)c(COC(=O)[C@]23CCC(C)(C)CC2C2=CCC4[C@@]5(C)CC[C@H](OC(=O)c6nc(C)c(C)nc6C)C(C)(C)C5CC[C@@]4(C)[C@]2(C)CC3)nc1C (stereo partly drawn) [Compound 1b, 3β-Hydroxyolea-(3,5,6-trimethylpyrazin-2-carbonyl)-12-en-28-oic acid-3,5,6-trimethylpyrazin-2-methyl ester] |  |  |  |  |  |  | > 20 | > 20 | 10.6 | > 20 | 12.1 | > 20 | 193 to 193.7
C=C(C)C1CCC2(C(=O)O)CCC3(C)C(CCC4C5(C)CCC(OC(=O)c6nc(C)c(C)nc6C)C(C)(C)C5CCC43C)C12 (stereo not drawn) [Compound 4d, 3β-Hydroxy-(3,5,6-trimethylpyrazin-2-carbonyl)-lup-20(29)-ene-28-oic acid] |  |  |  |  |  |  | > 20 | 12.2 | 6.22 | 13.3 | 7.42 | 8.38 | 279.5 to 280.3
C=C(C)[C@@H]1CC[C@]2(C(=O)OCc3nc(C)c(C)nc3C)CC[C@]3(C)C(CCC4[C@@]5(C)CC[C@H](OC(=O)c6nc(C)c(C)nc6C)C(C)(C)C5CC[C@]43C)C12 (stereo partly drawn) [Compound 4b, 3β-Hydroxy-(3,5,6-trimethylpyrazin-2-carbonyl)-lup-20(29)-ene-28-oic acid-3,5,6-trimethylpyrazin-2-methyl ester] |  |  |  |  |  |  | > 20 | > 20 | 12.9 | > 20 | 13.2 | > 20 | 142.1 to 142.9
C=C(C)C1CCC2(C(=O)OCc3ccccc3)CCC3(C)C(CCC4C5(C)CCC(OC(=O)c6nc(C)c(C)nc6C)C(C)(C)C5CCC43C)C12 (stereo not drawn) [Compound 4c, 3β-Hydroxy-(3,5,6-trimethylpyrazin-2-carbonyl)-lup-20(29)-ene-28-oic acid-benzyl ester] |  |  |  |  |  |  |  | > 20 | > 20 | > 20 | > 20 | > 20 | 162.1 to 162.8
Cc1nc(C)c(C)nc1C [TMP, ligustrazine] |  |  |  |  |  |  |  | > 20 | > 20 | > 20 | > 20 | > 20 | 
Cc1nc(C)c(COC(=O)[C@]23CCC(C)(C)CC2C2=CCC4[C@@]5(C)CC[C@H](O)C(C)(C)C5CC[C@@]4(C)[C@]2(C)CC3)nc1C (stereo partly drawn) [Compound 1a, 3β-Hydroxyolea-12-en-28-oic acid-3,5,6-trimethylpyrazin-2-methyl ester] |  |  |  |  |  |  | > 20 | 14.1 | 15.2 | 10.2 | 14.8 | 13.2 | 
CC1(C)[C@@H](O)CC[C@]2(C)[C@H]3C(=O)C=C4[C@@H]5C[C@@](C)(C(=O)O)CC[C@]5(C)CC[C@@]4(C)[C@]3(C)CC[C@@H]12 [GA, glycyrrhetic acid, reference compound] |  | > 20 | > 20 | > 20 | > 20 | > 20 |  |  |  |  |  |  | 
Cc1nc(C)c(C(=O)OC2CCC3(C)C(CCC4(C)C3CC=C3C5CC(C)(C)CCC5(C(=O)OCc5ccccc5)CCC34C)C2(C)C)nc1C (stereo not drawn) [Compound 1c, 3β-Hydroxyolea-(3,5,6-trimethylpyrazin-2-carbonyl)-12-en-28-oic acid-benzyl ester] |  |  |  |  |  |  |  | > 20 | > 20 | > 20 | > 20 | > 20 | 194.2 to 194.9
C=C(C)[C@@H]1CC[C@]2(C(=O)O)CC[C@]3(C)[C@H](CC[C@@H]4[C@@]5(C)CC[C@H](O)C(C)(C)[C@@H]5CC[C@]43C)[C@@H]12 [BA, betulinic acid, reference compound] |  |  |  |  |  |  |  | > 20 | > 20 | > 20 | > 20 | > 20 | 
Cc1nc(C)c(C(=O)OC2CCC3(C)C(CCC4(C)C3CC=C3C5C(C)C(C)CCC5(C(=O)O)CCC34C)C2(C)C)nc1C (stereo not drawn) [Compound 2d, 3β-Hydroxyurs-(3,5,6-trimethylpyrazin-2-carbonyl)-12-en-28-oic acid] |  |  |  |  |  |  | > 20 | 9.66 | 9.49 | 10.1 | > 20 | 9.7 | 305.9 to 306.6
Cc1nc(C)c(C(=O)OC2CCC3(C)C(CCC4(C)C3CC=C3C5C(C)C(C)CCC5(C(=O)OCc5ccccc5)CCC34C)C2(C)C)nc1C (stereo not drawn) [Compound 2c, 3β-Hydroxyurs-(3,5,6-trimethylpyrazin-2-carbonyl)-12-en-28-oic acid-benzyl ester] |  |  |  |  |  |  |  | > 20 | > 20 | > 20 | > 20 | > 20 | 218.5 to 219.3
